Reference: patent US6632422B2, “Antiperspirant and deodorant products and methods for their use” (priority 2000, dated 2003)
Where a name gives a salt, the structure may show the parent alone. Read-outs that look alike come from different tables or passages of the source.

Legend:
[1] = test system: isolated cannulated monkey palm eccrine sweat glands; settings: in vitro; cited from earlier work
[2] = test system: secretory coil cells of human apocrine glands; experiment: Inhibition of methylcholine-induced calcium influx into human apocrine secretory coil cells (Fura-2); assay type: cell-based
Method: (§1) Collapsed segments of secretory coil were held between two glass pipettes in the perfusion bath of an inverted Olympus IMT-2 microscope and bathed in a solution at 37° C. containing (in mmol.dm^−3): sodium chloride, 130; HEPES (buffer; 4-[2-hydroxyethyl]-1-piperazineethanesulphonic acid), 20; potassium chloride, 5; calcium chloride, 1; magnesium chloride, 1; and glucose, 10. The pH of the solution was adjusted to 7.4 using 1 mol.dm^−3 sodium hydroxide solution.
Intracellular calcium concentration was measured using the fluorescent probe Fura-2, a dye that has high affinity for calcium. When illuminated with ultraviolet light at 350 and 380 nm, Fura-2 emits corresponding fluorescent signals. Importantly, when calcium binds to the dye, the magnitude of the emitted fluoresence signal alters. […]
Segments of secretory coil were incubated for 40 minutes, at 37° C., with 5 μm.dm^−3 Fura-2 AM. This form of Fura-2 is lipid soluble and readily enters the cell where the AM group is cleaved off by esterases, leaving the fluorescent lipid-insoluble dye trapped within the cells. […] The fluorescence resulting from the tissue was passed through a 505 nm bandpass filter, before being detected by a photomultiplier tube. The output from the photomultiplier tube was digitised and analysed using Photon Technology International software. […]

[3] = test system: secretory coil cells of human eccrine glands; experiment: Inhibition of methylcholine-induced calcium influx into human eccrine secretory coil cells (Fura-2); assay type: cell-based
Method: The procedure is performed on an isolated human sweat gland. Collapsed segments of secretory coil are held between two glass pipettes in the perfusion bath of an inverted microscope and bathed at 37° C. in a solution buffered to pH 7.4. Intracellular calcium may be measured by any convenient means; in our tests the fluorescent dye FURA-2 AM was used (full details are given in Examples 1 and 2). The calcium influx induced by the administration of methylcholine at 1 μmol.dm^−3 is compared before and after the introduction of the test material into the buffer solution. Test materials are classed as CCBAs if they are able to reduce the methylcholine-induced calcium influx into the cells, preferably by at least 20%, more preferably by at least 50%. The concentration of test material used should be between 1 and 100 μmol.dm^−3 for pure compounds, 25 μmol.dm^−3 being a typical concentration of use. When the test material used is not a pure compound, for example when it is a plant extract, allowance must be made for the non-active components in the extract when choosing the test dosage.
as §1
The calcium influx was induced by the administration of methylcholine (a cholinergic agonist) at 1 μmol.dm^−3. This was first done for control solutions containing no CCBA and then for test solutions containing tetrandrine (various dosages).
Intracellular calcium concentration was measured using the fluorescent probe Fura-2, a dye that has high affinity for calcium. When illuminated with ultraviolet light at 350 and 380 nm, Fura-2 emits corresponding fluorescent signals. Importantly, when calcium binds to the dye, the magnitude of the emitted fluoresence signal alters. It is these changes that are used to calculate the intracellular calcium concentration (vide infra).
Segments of secretory coil were incubated for 40 minutes, at 37° C., with 5 μm.dm^−3 Fura-2 AM. This form of Fura-2 is lipid soluble and readily enters the cell where the AM group is cleaved off by esterases, leaving the fluorescent lipid-insoluble dye trapped within the cells. Excitation light at 350 and 380 nm was supplied from a computer controlled Photon Technology International (PTI) spectrofluorimeter. This light was passed through a 390 nm dichroic mirror, prior to passage through the microscope objective (×40) and onto the tissue sample. The fluorescence resulting from the tissue was passed through a 505 nm bandpass filter, before being detected by a photomultiplier tube. The output from the photomultiplier tube was digitised and analysed using Photon Technology International software. Background fluorescence (measured prior to introduction of the Fura-2 AM) was subtracted from the total signal for each wavelength and a value representing the intracellular calcium concentration was obtained by dividing the fluorescence value resulting from the 350 nm excitation light by that resulting from the 380 nm excitation light.

[4] = test system: isolated human eccrine glands; experiment: In vitro sweat reduction study on isolated human eccrine glands; assay type: cell-based
Excerpt: This example illustrates the ability of CCBAs to reduce sweat secretion from isolated human eccrine glands.
The method employed was analogous to that described by Sato and Sato in Am. J. Physiol., 1973, 225, 1147-1151.

[5] = test system: Staphylococcus epidermidis; settings: cited from earlier work

Q: Which “effect on sweat production” value [1] does the source give for methoxy-verapamil here?
A: reduce sweat production

Q: Which Ca influx inhibition ([2]; dosage 10 μmol.dm^−3, methylcholine 50 μmol.dm^−3) does the source give for `COc1ccc2cc1Oc1ccc(cc1)C[C@H]1c3cc(c(OC)cc3CCN1C)Oc1c(OC)c(OC)cc3c1[C@H](C2)N(C)CC3` [Tetrandrine, tetrandrine] here?
A: 60%

Q: What about the Ca influx inhibition ([2]; dosage 50 μmol.dm^−3, methylcholine 50 μmol.dm^−3) of the same molecule?
A: 93%

Q: What about the Ca influx inhibition ([3]; dosage 1 μmol.dm^−3, methylcholine 1 μmol.dm^−3) of the same molecule?
A: 24%

Q: And the Ca influx inhibition ([3]; dosage 10 μmol.dm^−3, methylcholine 1 μmol.dm^−3)?
A: 44%

Q: What about the Ca influx inhibition ([3]; dosage 25 μmol.dm^−3, methylcholine 1 μmol.dm^−3) of the same molecule?
A: 75%

Q: And the Ca influx inhibition ([3]; dosage 50 μmol.dm^−3, methylcholine 1 μmol.dm^−3)?
A: 96%

Q: And the Ca influx inhibition ([3]; dosage 100 μmol.dm^−3, methylcholine 1 μmol.dm^−3)?
A: 100%

Q: What about the “% reduction in sweat secretion” value ([4]; dosage 50 μmol.dm^−3) of the same molecule?
A: 93%

Q: With `CCO` [ethanol] as the molecule, how does the MIC ([5]; stated by contrast, no source given) read?
A: greater than 1 mg.ml^−1

Q: Which MIC ([5]; literature values) does the source give for `Oc1cc(Cl)ccc1Oc1ccc(Cl)cc1Cl` [triclosan, 2′,4,4′-trichloro, 2-hydroxy-diphenyl ether] here?
A: 0.01 to 10 µg/mL

Q: Which “% reduction in sweat secretion” value ([4]; dosage 1000 μmol.dm^−3) does the source give for `COc1ccc(CCN(C)CCCC(C#N)(c2ccc(OC)c(OC)c2)C(C)C)cc1OC` (stereo not shown) [Verapamil hydrochloride] here?
A: 93%

Q: With `CC(C)=CCCC(C)=CCCC(C)=CCO` [farnesol, 3,7,11-trimethyldodeca-2,6,10-trienol] as the molecule, how does the MIC ([5]; literature values) read?
A: ca. 25 μg.ml^−1
